Experimental data reported in patent US20230398095A1, “THERAPEUTIC AGENT FOR TREATMENT OF AGE-RELATED MACULAR DEGENERATION” (priority 2022, published 2023).

System: Human Tenon's capsule fibroblasts (HTCF)
Test: Oxidative stressor dosage curve, cell metabolic activity (MTT) of HTCF
Assay type: cell-based
Conditions: one-hour incubation, dose-dependent, n=4
Protocol: The following preferred method was utilized in conducting the experiment: • 1) Culture cells (90% confluence) • 2) Load 5×10^4 cells/well in 24-well plates • 3) Change to serum-free medium overnight • 4) Treat cells • 5) Measure cell metabolic activity (MTT) or % cytotoxicity (LDH) • 6) Normalize results • 7) Replicate experiment with cell lines from different patients • 8) Conduct statistical analysis
1. Treat cells with serum free medium and tert-butyl hydroperoxide (t-BOOH) at 0 mM (VC), […], 0.1 mM, 0.5 mM, 1 mM and 2 mM for 30 min, 1 h, 2 h, 3 h
2. Measure cell metabolic activity with 3-(4,5-dimethylthiazol-2-yl)-2,5-diphenyltetrazolium bromide (MTT) assay
FIGS. 5A-5D show the cell metabolic activity of HTCF cells in response to treatment with tert-butyl hydroperoxide (t-BOOH).
Dose-dependent effect of a one-hour incubation.

In the case of `CC(C)(C)OO` [tert-butyl hydroperoxide (t-BOOH), Tert-butyl hydroperoxide], the “cell metabolic activity versus control sample” value is reported as “significant effect versus the control sample”.
